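Five compound concentrations were applied to cells in 96-well plates for 48 hours; endpoints were derived by simple linear interpolation of the resulting dose-response curve. Here, GI50 denotes the concentration required for 50% inhibition of growth.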 Activity calls are given as the source filed them. No stated cut-off is given here; in the data, active = GI50 up to about 1.1 µM and inactive = higher. Starred links: 1 amine or outer side, 2 acyl side, 3 side chain; linkers in the order of their positions; H or OH if unused. Non-standard residues stand in square brackets, D forms with d. Residues, ends and D or L forms follow the SMILES beside them. X4 = C[C@H](N[*:1])C(=O)C(C)(C)C(=O)[*:2]; Hmpa(2S,3S) = CC[C@H](C)[C@H](O)C(=O)O; NMeY = CN[C@@H](Cc1ccc(O)cc1)C(=O)O; NMeL = CN[C@@H](CC(C)C)C(=O)O; NMeV = CN[C@H](C(=O)O)C(C)C; βAla = NCCC(=O)O
Key:
Test in all cases: NCI anticancer screen, dose series, 48 h
786-0 = tested on: 786-0
BT-549 = tested on: BT-549
CAKI-1 = tested on: CAKI-1
CCRF-CEM = tested on: CCRF-CEM
HCC 2998 = tested on: HCC 2998
HCT-116 = tested on: HCT-116
Hs-578T = tested on: Hs-578T
K562 = tested on: K562
LOX IMVI = tested on: LOX IMVI
MDA-N = tested on: MDA-N
MOLT-4 = tested on: MOLT-4
OVCAR-4 = tested on: OVCAR-4
OVCAR-8 = tested on: OVCAR-8
SF-268 = tested on: SF-268
SK-MEL-28 = tested on: SK-MEL-28
SNB-75 = tested on: SNB-75
UACC-257 = tested on: UACC-257

CCOP(=O)(OCC)C(c1ccc(F)cc1)N(C(=O)NC(F)(F)F)c1cccc(C(F)(F)F)c1 (configuration not stated)
GI50 (786-0): > 10 µM (inactive)
GI50 (BT-549): > 100 µM (inactive)
GI50 (CAKI-1): > 100 µM (inactive)
GI50 (CCRF-CEM): > 100 µM (inactive)
GI50 (HCC 2998): > 100 µM (inactive)
GI50 (HCT-116): 84.3 µM (inactive)
GI50 (Hs-578T): 59.8 µM (inactive)
GI50 (K562): 50.2 µM (inactive)
GI50 (LOX IMVI): > 100 µM (inactive)
GI50 (MDA-N): > 100 µM (inactive)
GI50 (MOLT-4): 61.9 µM (inactive)
GI50 (OVCAR-4): 96.4 µM (inactive)
GI50 (OVCAR-8): > 100 µM (inactive)
GI50 (SF-268): > 100 µM (inactive)
GI50 (SK-MEL-28): > 100 µM (inactive)
GI50 (SNB-75): 46.9 µM (inactive)
GI50 (UACC-257): > 100 µM (inactive)

COC(=O)C1c2cc3c(cc2C(OC2OC(C)C(OC)C(C)(OC)C2OC)CC1(C)O)C(=O)c1c(O)cc2c(c1C3=O)OC1OC2(C)C(O)C([N+](C)(C)[O-])C1O (configuration not stated)
GI50 (786-0): 0.111 µM (active)
GI50 (BT-549): 0.179 µM (active)
GI50 (CAKI-1): 0.938 µM (active)
GI50 (CCRF-CEM): 0.0504 µM (active)
GI50 (HCC 2998): 0.146 µM (active)
GI50 (HCT-116): 0.0197 µM (active)
GI50 (Hs-578T): 0.165 µM (active)
GI50 (K562): 0.0324 µM (active)
GI50 (LOX IMVI): 0.0354 µM (active)
GI50 (MDA-N): 0.0512 µM (active)
GI50 (MOLT-4): 0.416 µM (active)
GI50 (OVCAR-4): 4.09 µM (inactive)
GI50 (OVCAR-8): 0.0927 µM (active)
GI50 (SF-268): 0.0891 µM (active)
GI50 (SK-MEL-28): 0.195 µM (active)
GI50 (SNB-75): 0.179 µM (active)
GI50 (UACC-257): 0.182 µM (active)

CC[C@H](C)[C@@H]1OC(=O)CCNC(=O)[C@@H](C)NC(=O)C(C)(C)C(=O)[C@H](C)NC(=O)[C@H](Cc2ccc(OC)cc2)N(C)C(=O)[C@H](C(C)C)N(C)C(=O)CNC(=O)[C@H](CC(C)C)N(C)C(=O)CNC1=O (cyclo(G[NMeL]G[NMeV][NMeY](Me)[X4][dA][βAla][Hmpa(2S,3S)]))
GI50 (786-0): 0.676 µM (active)
GI50 (BT-549): 2.81 µM (inactive)
GI50 (CAKI-1): 1.53 µM (inactive)
GI50 (CCRF-CEM): 0.0568 µM (active)
GI50 (HCC 2998): 0.0715 µM (active)
GI50 (HCT-116): 0.0352 µM (active)
GI50 (Hs-578T): 0.916 µM (active)
GI50 (K562): 0.0389 µM (active)
GI50 (LOX IMVI): 0.175 µM (active)
GI50 (MDA-N): 0.299 µM (active)
GI50 (MOLT-4): 2.4 µM (inactive)
GI50 (OVCAR-4): 0.284 µM (active)
GI50 (OVCAR-8): 3.58 µM (inactive)
GI50 (SF-268): 0.254 µM (active)
GI50 (SK-MEL-28): 0.15 µM (active)
GI50 (SNB-75): 0.348 µM (active)
GI50 (UACC-257): 0.218 µM (active)

COc1cc(C(c2c(O)c3ccccc3oc2=O)c2c(O)c3ccccc3oc2=O)ccc1O
GI50 (786-0): 20.2 µM (inactive)
GI50 (BT-549): 19.1 µM (inactive)
GI50 (CAKI-1): 20.8 µM (inactive)
GI50 (CCRF-CEM): 28.8 µM (inactive)
GI50 (HCC 2998): 18.9 µM (inactive)
GI50 (HCT-116): 34 µM (inactive)
GI50 (Hs-578T): 40.4 µM (inactive)
GI50 (K562): 39.4 µM (inactive)
GI50 (LOX IMVI): 24.6 µM (inactive)
GI50 (MDA-N): 19.9 µM (inactive)
GI50 (MOLT-4): 21.1 µM (inactive)
GI50 (OVCAR-4): 49.1 µM (inactive)
GI50 (OVCAR-8): 27.7 µM (inactive)
GI50 (SF-268): 21.5 µM (inactive)
GI50 (SK-MEL-28): 16.7 µM (inactive)
GI50 (SNB-75): 20.7 µM (inactive)
GI50 (UACC-257): 19.1 µM (inactive)

CC[C@@H]1/C=C/C=C/C[C@H](C)[C@@H](O)[C@](C)(O)C(=O)[C@H](C)[C@@H](O)[C@H](C)C(=O)[C@H](C)[C@@H](O)[C@H](C)/C=C/C(=O)O[C@H]2[C@@H](C)[C@@H](CC1)O[C@]1(O[C@H](CC(C)O)[C@H](C)CC1=O)[C@@H]2C (some centres not stated)
GI50 (786-0): 4.79 µM (inactive)
GI50 (BT-549): 3.75 µM (inactive)
GI50 (CAKI-1): 3.96 µM (inactive)
GI50 (CCRF-CEM): 3.56 µM (inactive)
GI50 (HCC 2998): 3.53 µM (inactive)
GI50 (HCT-116): 2.62 µM (inactive)
GI50 (Hs-578T): 5.36 µM (inactive)
GI50 (K562): < 0.0025 µM (active)
GI50 (LOX IMVI): 3.99 µM (inactive)
GI50 (MDA-N): 3.35 µM (inactive)
GI50 (MOLT-4): 3.82 µM (inactive)
GI50 (OVCAR-4): 2.56 µM (inactive)
GI50 (OVCAR-8): < 0.0025 µM (active)
GI50 (SF-268): 3.71 µM (inactive)
GI50 (SK-MEL-28): 6 µM (inactive)
GI50 (SNB-75): 0.871 µM (active)
GI50 (UACC-257): < 0.0025 µM (active)

COc1cc(C2C3=C(COC3=O)Oc3cc4c(cc32)OCO4)ccc1OC(C)=O (configuration not stated)
GI50 (786-0): 0.521 µM (active)
GI50 (BT-549): 0.222 µM (active)
GI50 (CAKI-1): 0.303 µM (active)
GI50 (CCRF-CEM): 0.35 µM (active)
GI50 (HCC 2998): 1.01 µM (active)
GI50 (HCT-116): 0.398 µM (active)
GI50 (Hs-578T): 0.112 µM (active)
GI50 (K562): 0.13 µM (active)
GI50 (LOX IMVI): 0.708 µM (active)
GI50 (MDA-N): 0.0467 µM (active)
GI50 (MOLT-4): 0.536 µM (active)
GI50 (OVCAR-4): 1.41 µM (inactive)
GI50 (OVCAR-8): 0.752 µM (active)
GI50 (SF-268): 1.09 µM (active)
GI50 (SK-MEL-28): 10.8 µM (inactive)
GI50 (SNB-75): 0.168 µM (active)
GI50 (UACC-257): > 100 µM (inactive)

N#Cc1c(N)nc2c(/N=N\c3ccccc3)c(N)nn2c1Nc1ccccc1
GI50 (786-0): 18.6 µM (inactive)
GI50 (BT-549): 23.9 µM (inactive)
GI50 (CAKI-1): 8.93 µM (inactive)
GI50 (CCRF-CEM): 4.37 µM (inactive)
GI50 (HCC 2998): 4.41 µM (inactive)
GI50 (HCT-116): 9.38 µM (inactive)
GI50 (Hs-578T): 1.06 µM (active)
GI50 (K562): 3.4 µM (inactive)
GI50 (LOX IMVI): 3.4 µM (inactive)
GI50 (MDA-N): 15.6 µM (inactive)
GI50 (MOLT-4): 3.24 µM (inactive)
GI50 (OVCAR-4): 14.9 µM (inactive)
GI50 (OVCAR-8): 3.72 µM (inactive)
GI50 (SF-268): 26.7 µM (inactive)
GI50 (SK-MEL-28): 5.51 µM (inactive)
GI50 (SNB-75): 34.3 µM (inactive)
GI50 (UACC-257): 18.7 µM (inactive)

C1C2CC3CC1CC(Nc1nc(NC45CC6CC(CC(C6)C4)C5)nc(NC45CC6CC(CC(C6)C4)C5)n1)(C2)C3
GI50 (786-0): > 20.8 µM (inactive)
GI50 (BT-549): > 68.2 µM (inactive)
GI50 (CAKI-1): > 100 µM (inactive)
GI50 (CCRF-CEM): > 92.9 µM (inactive)
GI50 (HCC 2998): 72.1 µM (inactive)
GI50 (HCT-116): > 51.9 µM (inactive)
GI50 (Hs-578T): 43.4 µM (inactive)
GI50 (K562): > 62.5 µM (inactive)
GI50 (LOX IMVI): 11.1 µM (inactive)
GI50 (MDA-N): 74.3 µM (inactive)
GI50 (MOLT-4): 57.3 µM (inactive)
GI50 (OVCAR-4): > 83 µM (inactive)
GI50 (OVCAR-8): > 26 µM (inactive)
GI50 (SF-268): > 100 µM (inactive)
GI50 (SK-MEL-28): > 31.1 µM (inactive)
GI50 (SNB-75): 16.9 µM (inactive)
GI50 (UACC-257): > 28.8 µM (inactive)

CC(=O)/C(=C\NC(N)=S)C(=O)Nc1ccccc1C
GI50 (786-0): > 100 µM (inactive)
GI50 (BT-549): > 100 µM (inactive)
GI50 (CAKI-1): > 100 µM (inactive)
GI50 (CCRF-CEM): > 100 µM (inactive)
GI50 (HCC 2998): > 100 µM (inactive)
GI50 (HCT-116): > 100 µM (inactive)
GI50 (Hs-578T): > 100 µM (inactive)
GI50 (K562): > 100 µM (inactive)
GI50 (LOX IMVI): > 100 µM (inactive)
GI50 (MDA-N): > 100 µM (inactive)
GI50 (MOLT-4): > 100 µM (inactive)
GI50 (OVCAR-4): > 100 µM (inactive)
GI50 (OVCAR-8): > 100 µM (inactive)
GI50 (SF-268): > 100 µM (inactive)
GI50 (SK-MEL-28): > 100 µM (inactive)
GI50 (SNB-75): > 100 µM (inactive)
GI50 (UACC-257): > 100 µM (inactive)

C=C1C(=O)O[C@H]2[C@H](OC(C)=O)[C@@H](C)CCC/C(C)=C/CC[C@@]3(C)O[C@@H]3C[C@@H]12
GI50 (786-0): 1.6 µM (inactive)
GI50 (BT-549): 2.94 µM (inactive)
GI50 (CAKI-1): 2.19 µM (inactive)
GI50 (CCRF-CEM): 0.661 µM (active)
GI50 (HCC 2998): 5.27 µM (inactive)
GI50 (HCT-116): 2.23 µM (inactive)
GI50 (Hs-578T): 3.32 µM (inactive)
GI50 (K562): 3.03 µM (inactive)
GI50 (LOX IMVI): 1.86 µM (inactive)
GI50 (MDA-N): 2.94 µM (inactive)
GI50 (MOLT-4): 2.6 µM (inactive)
GI50 (OVCAR-4): 3.55 µM (inactive)
GI50 (OVCAR-8): 0.885 µM (active)
GI50 (SF-268): 5.62 µM (inactive)
GI50 (SK-MEL-28): 4.72 µM (inactive)
GI50 (SNB-75): 6.21 µM (inactive)
GI50 (UACC-257): 5.06 µM (inactive)

COc1cccc(O)c1-c1cc(=O)c2c(O)c(OC)c(OC)c(OC)c2o1 [SKULLCAPFLAVONE II]
GI50 (786-0): 42.6 µM (inactive)
GI50 (BT-549): 27.2 µM (inactive)
GI50 (CAKI-1): 22.8 µM (inactive)
GI50 (CCRF-CEM): 34.5 µM (inactive)
GI50 (HCC 2998): 7.59 µM (inactive)
GI50 (HCT-116): 32.1 µM (inactive)
GI50 (Hs-578T): 35.9 µM (inactive)
GI50 (K562): 14.5 µM (inactive)
GI50 (LOX IMVI): 30.2 µM (inactive)
GI50 (MDA-N): 12.9 µM (inactive)
GI50 (MOLT-4): 29.2 µM (inactive)
GI50 (OVCAR-4): 30.3 µM (inactive)
GI50 (OVCAR-8): 30.3 µM (inactive)
GI50 (SF-268): 35.3 µM (inactive)
GI50 (SK-MEL-28): 35.8 µM (inactive)
GI50 (SNB-75): 23 µM (inactive)
GI50 (UACC-257): 27 µM (inactive)
